Test results published in patent publication US20060235076A1, “Medicinal composition for treating infection with drug-resistant staphylococcus aureus” (priority 2003, published 2006).
≈ marks a conversion by molar mass, not a printed value. Where two headings read alike, the source gives them in different places.

How the values were obtained:
Assay type in all cases: cell-based, Staphylococcus aureus
[1] = tested on: MRSA; assay: Potentiating effect of isoamyl gallate for the antibacterial activity of other β-lactams (agar plate dilution method, MIC)
Description: (§1) According to the agar plate dilution method defined by Japan Society of Chemotherapy, MIC (Minimum inhibitory concentration) was determined. CAMHA was prepared by adding 50 mg/l of Ca-ion, 25 mg/l of Mg-ion, and 2% of NaCl to Mueller-Hinton II Agar (MHA), and it was used as a medium for use in the measurement of sensitivity. The bacterial liquid was incubated at 37° C. overnight and diluted to 10^6 CFU/ml with saline.

[2] = tested on: MRSA and MSSA; assay: Enhancing activity for the antibacterial activity of oxacillin by various gallates (agar plate dilution method, oxacillin MIC); details: MRSA and MSSA
Description: as §1

[3] = tested on: MRSA COL and MRSA Strain No. 5; assay: Potentiating effect of various gallates for antibacterial activity of oxacillin (MIC by broth microdilution method and FIC); details: for FIC value: combination with oxacillin
Method in brief: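 Broth microdilution MIC per Japan Society of Chemotherapy method in cation-adjusted Mueller-Hinton broth (50 mg/l Ca, 25 mg/l Mg, 2% NaCl); inoculum 5×10^5 CFU/well from overnight 37° C culture. Gallate–oxacillin combinations evaluated by FIC.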

[4] = tested on: MRSA and MSSA; assay: Antibacterial activity of gallic acid, various gallates and multivalent phenol derivatives alone (agar plate dilution method, MIC); details: for MIC50 / MIC: Staphylococcus aureus
Method in brief: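 Each compound tested alone. Bacteria cultured overnight at 37 °C, then brought to 10^6 CFU/ml in saline and tested on MHA II with added Ca-ion (50 mg/l), Mg-ion (25 mg/l) and 2% NaCl. MIC read by the Japan Society of Chemotherapy agar dilution method.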

[5] = RN4220, with isoamyl gallate 25 mg/ml
[6] = COL, compound alone, read-out: MIC
[7] = MRSA #1, compound alone, read-out: MIC
[8] = MRSA #2, compound alone, read-out: MIC
[9] = MRSA #3, compound alone, read-out: MIC
[10] = MRSA #4, compound alone, read-out: MIC
[11] = MRSA #5, compound alone, read-out: MIC
[12] = MRSA #6, compound alone, read-out: MIC
[13] = MRSA #7, compound alone, read-out: MIC
[14] = MRSA #8, compound alone, read-out: MIC
[15] = MRSA #9, compound alone, read-out: MIC
[16] = MRSA #10, compound alone, read-out: MIC
[17] = MRSA #12, compound alone, read-out: MIC
[18] = MRSA #16, compound alone, read-out: MIC
[19] = MRSA #17, compound alone, read-out: MIC
[20] = MRSA #18, compound alone, read-out: MIC
[21] = MRSA #20, compound alone, read-out: MIC
[22] = MRSA #21, compound alone, read-out: MIC
[23] = MRSA #22, compound alone, read-out: MIC
[24] = MRSA #24, compound alone, read-out: MIC
[25] = MSSA #1003, compound alone, read-out: MIC
[26] = MSSA #1010, compound alone, read-out: MIC
[27] = MSSA #1020, compound alone, read-out: MIC
[28] = MSSA #1023, compound alone, read-out: MIC
[29] = MSSA #1029, compound alone, read-out: MIC
[30] = MSSA #1032, compound alone, read-out: MIC

## CC(C)CCOC(=O)c1cc(O)c(O)c(O)c1 [isoAmyl gallate, Isoamyl gallate]
[1]; [5]
  Ampicillin MIC: 63 µg/mL
  Cefapirin MIC: 63 µg/mL
[1]; with penicillin G, cefoxitin, ampicillin, and cefapirin
  effects of the combination use with other β-lactams: excellent effects of the combination use
[2]
  effect of combination use with oxacillin (words): potent effects of the combination use
[3]; MRSA COL
  FIC value: 0.25
[3]; MRSA Strain No. 5
  FIC value: 0.313
[4]
  MIC50: 62.5 µg/mL (≈ 260 µM)
[4]; ATCC 6538 / MRSA / MSSA
  MIC: 62.5 µg/mL (≈ 260 µM)
[4]; [6]
  MIC: 62.5 µg/mL (≈ 260 µM)
[4]; [7]
  MIC: 62.5 µg/mL (≈ 260 µM)
[4]; [8]
  MIC: 62.5 µg/mL (≈ 260 µM)
[4]; [9]
  MIC: 62.5 µg/mL (≈ 260 µM)
[4]; [10]
  MIC: 62.5 µg/mL (≈ 260 µM)
[4]; [11]
  MIC: 62.5 µg/mL (≈ 260 µM)
[4]; [12]
  MIC: 62.5 µg/mL (≈ 260 µM)
[4]; [13]
  MIC: 62.5 µg/mL (≈ 260 µM)
[4]; [14]
  MIC: 62.5 µg/mL (≈ 260 µM)
[4]; [15]
  MIC: 62.5 µg/mL (≈ 260 µM)
[4]; [16]
  MIC: 31.3 µg/mL (≈ 130 µM)
[4]; [17]
  MIC: 62.5 µg/mL (≈ 260 µM)
[4]; [18]
  MIC: 62.5 µg/mL (≈ 260 µM)
[4]; [19]
  MIC: 62.5 µg/mL (≈ 260 µM)
[4]; [20]
  MIC: 62.5 µg/mL (≈ 260 µM)
[4]; [21]
  MIC: 62.5 µg/mL (≈ 260 µM)
[4]; [22]
  MIC: 62.5 µg/mL (≈ 260 µM)
[4]; [23]
  MIC: 125 µg/mL (≈ 520 µM)
[4]; [24]
  MIC: 125 µg/mL (≈ 520 µM)
[4]; [25]
  MIC: 125 µg/mL (≈ 520 µM)
[4]; [26]
  MIC: 62.5 µg/mL (≈ 260 µM)
[4]; [27]
  MIC: 62.5 µg/mL (≈ 260 µM)
[4]; [28]
  MIC: 62.5 µg/mL (≈ 260 µM)
[4]; [29]
  MIC: 62.5 µg/mL (≈ 260 µM)
[4]; [30]
  MIC: 62.5 µg/mL (≈ 260 µM)

## CC(C)COC(=O)c1cc(O)c(O)c(O)c1 [isoButyl gallate, isobutyl gallate]
[2]
  effect of combination use with oxacillin (words): potent effects of the combination use
[3]; COL Strain and Strain No. 5
  effect of the combination use with oxacillin by FIC values: most potent effect of the combination use
[3]; MRSA COL
  FIC value: 0.129
[3]; MRSA Strain No. 5
  FIC value: 0.266
[4]
  MIC50: 125 µg/mL (≈ 553 µM)
[4]; ATCC 6538 / MRSA / MSSA
  MIC: 125 µg/mL (≈ 553 µM)
[4]; [6]
  MIC: 125 µg/mL (≈ 553 µM)
[4]; [7]
  MIC: 125 µg/mL (≈ 553 µM)
[4]; [8]
  MIC: 62.5 µg/mL (≈ 276 µM)
[4]; [9]
  MIC: 125 µg/mL (≈ 553 µM)
[4]; [10]
  MIC: 125 µg/mL (≈ 553 µM)
[4]; [11]
  MIC: 125 µg/mL (≈ 553 µM)
[4]; [12]
  MIC: 62.5 µg/mL (≈ 276 µM)
[4]; [13]
  MIC: 125 µg/mL (≈ 553 µM)
[4]; [14]
  MIC: 125 µg/mL (≈ 553 µM)
[4]; [15]
  MIC: 62.5 µg/mL (≈ 276 µM)
[4]; [16]
  MIC: 62.5 µg/mL (≈ 276 µM)
[4]; [17]
  MIC: 125 µg/mL (≈ 553 µM)
[4]; [18]
  MIC: 125 µg/mL (≈ 553 µM)
[4]; [19]
  MIC: 125 µg/mL (≈ 553 µM)
[4]; [20]
  MIC: 125 µg/mL (≈ 553 µM)
[4]; [21]
  MIC: 125 µg/mL (≈ 553 µM)
[4]; [22]
  MIC: 125 µg/mL (≈ 553 µM)
[4]; [23]
  MIC: 125 µg/mL (≈ 553 µM)
[4]; [24]
  MIC: 125 µg/mL (≈ 553 µM)
[4]; [25]
  MIC: 125 µg/mL (≈ 553 µM)
[4]; [26]
  MIC: 125 µg/mL (≈ 553 µM)
[4]; [27]
  MIC: 125 µg/mL (≈ 553 µM)
[4]; [28]
  MIC: 125 µg/mL (≈ 553 µM)
[4]; [29]
  MIC: 62.5 µg/mL (≈ 276 µM)
[4]; [30]
  MIC: 125 µg/mL (≈ 553 µM)

## CCCCCOC(=O)c1cc(O)c(O)c(O)c1 [Pentyl gallate, n-pentyl gallate]
[2]
  effect of combination use with oxacillin (words): excellent potentiating effect
[3]; MRSA COL
  FIC value: 0.375
[3]; MRSA Strain No. 5
  FIC value: 0.563
[4]; MRSA #2
  MIC alone: 62.5 µg/mL (≈ 260 µM)
[4]
  MIC50: 62.5 µg/mL (≈ 260 µM)
[4]; ATCC 6538 / MRSA / MSSA, read-out: MIC alone
  MIC: 62.5 µg/mL (≈ 260 µM)
[4]; COL, read-out: MIC alone
  MIC: 62.5 µg/mL (≈ 260 µM)
[4]; MRSA #1, read-out: MIC alone
  MIC: 62.5 µg/mL (≈ 260 µM)
[4]; MRSA #2, read-out: MIC alone
  MIC: 67.5 µg/mL (≈ 281 µM)
[4]; MRSA #3, read-out: MIC alone
  MIC: 62.5 µg/mL (≈ 260 µM)
[4]; MRSA #4, read-out: MIC alone
  MIC: 62.5 µg/mL (≈ 260 µM)
[4]; MRSA #5, read-out: MIC alone
  MIC: 62.5 µg/mL (≈ 260 µM)
[4]; MRSA #6, read-out: MIC alone
  MIC: 62.5 µg/mL (≈ 260 µM)
[4]; MRSA #7, read-out: MIC alone
  MIC: 62.5 µg/mL (≈ 260 µM)
[4]; MRSA #8, read-out: MIC alone
  MIC: 62.5 µg/mL (≈ 260 µM)
[4]; MRSA #9, read-out: MIC alone
  MIC: 62.5 µg/mL (≈ 260 µM)
[4]; MRSA #10, read-out: MIC alone
  MIC: 62.5 µg/mL (≈ 260 µM)
[4]; MRSA #12, read-out: MIC alone
  MIC: 62.5 µg/mL (≈ 260 µM)
[4]; MRSA #16, read-out: MIC alone
  MIC: 62.5 µg/mL (≈ 260 µM)
[4]; MRSA #17, read-out: MIC alone
  MIC: 62.5 µg/mL (≈ 260 µM)
[4]; MRSA #18, read-out: MIC alone
  MIC: 62.5 µg/mL (≈ 260 µM)
[4]; MRSA #20, read-out: MIC alone
  MIC: 62.5 µg/mL (≈ 260 µM)
[4]; MRSA #21, read-out: MIC alone
  MIC: 62.5 µg/mL (≈ 260 µM)
[4]; MRSA #22, read-out: MIC alone
  MIC: 62.5 µg/mL (≈ 260 µM)
[4]; MRSA #24, read-out: MIC alone
  MIC: 62.5 µg/mL (≈ 260 µM)
[4]; MSSA #1003, read-out: MIC alone
  MIC: 62.5 µg/mL (≈ 260 µM)
[4]; MSSA #1010, read-out: MIC alone
  MIC: 62.5 µg/mL (≈ 260 µM)
[4]; MSSA #1020, read-out: MIC alone
  MIC: 62.5 µg/mL (≈ 260 µM)
[4]; MSSA #1023, read-out: MIC alone
  MIC: 62.5 µg/mL (≈ 260 µM)
[4]; MSSA #1029, read-out: MIC alone
  MIC: 62.5 µg/mL (≈ 260 µM)
[4]; MSSA #1032, read-out: MIC alone
  MIC: 62.5 µg/mL (≈ 260 µM)
